Tests used:
[1] = tested on: avocado rootstock cuttings; test: rooting of avocado rootstock cuttings; assay type: in vivo; settings: vc51 rootstock, IBA with compound
Method in brief: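 Green cuttings of avocado rootstock (including hard-to-root VC801) were treated with auxin conjugates in the presence of IBA and scored for rooting.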

[2] = 4-CPA levels in Eucalyptus grandis cuttings by LC-MS (translocation, release from conjugates); assay type: in vivo
Procedure: E. grandis cuttings were harvested at time 0, 1, 6 and 24 hours after the indicated treatments. The cutting foliage and basal ends (approximately 2-3 cm of the base) were harvested separately using a sharp pruning shear, rinsed well under a tap water stream, wiped with a paper towel and frozen in liquid nitrogen. Then, each sample was grinded well while still frozen, using an IKA lab mill. For the analysis, 3-6 technical replicates, weight 190-240 mg, were taken from each sample into fresh 2 ml Eppendorf™ tubes. Auxins were extracted in 1 ml of cold 79% isopropanol, 20% methanol and 1% acetic acid solution containing 20 ng of […] IBA and IAA as internal standards. The tubes were vortexed for 1 hr at 4° C. and then centrifuged at 14,000 RPM for 15 minutes. The supernatants were transferred to fresh 2 ml Eppendorf™ tubes. Two more extraction cycles were performed using 0.5 ml of extraction solvent without the internal standards. The tubes containing the collected supernatants were placed in a SpeedVac™ centrifuge for solvent evaporation under room temperature. The pellets were dissolved in pre-chilled 200 μl of 50% methanol, centrifuged, and the supernatant was filtered through […] PDFV syringe filters 13 mm into fresh 2 ml tubes. The ready extractions were kept under −20° C. till analyzed.
LC-MS analyses were conducted using UPLC-Triple Quadrupole-MS device (Waters Xevo TQ MS). Separation was performed on Waters Acquity™ UPLC BEH C18 1.7 μm 2.1×100 mm column with a VanGuard™ precolumn (BEH C18 1.7 μm 2.1×5 mm). Chromatographic and MS parameters were as follows: the mobile phase consisted of water (phase A) and acetonitrile (phase B), both containing 0.1% formic acid in the gradient elution mode. The solvent gradient program was as follows: […]
The flow rate was 0.3 ml/minute, and the column temperature was kept at 35° C. The analyses were performed using the ESI source in negative ion mode with the following settings: capillary voltage 3.1 kV, cone voltage 30 V, desolvation temperature 400° C., desolvation gas flow 565 liters/hour, source temperature 140° C. Quantitation was performed using MRM acquisition by monitoring the 185/127, 185/141, RT=5.77, dwell time of 161 msec for each transition. Calibration curve was used to calculate the concentration of 4-CPA. Acquisition of LC-MS data was performed under MassLynx™ V4.1 software (Waters).
In order to determine whether trend observed in Arabidopsis occurs also in eucalyptus cuttings, the 4-CPA translocation directionality was first examined by treating cuttings with 4-CPA (100 μM) either by submergence of the cutting base or by spraying the leaves. At several time points (i.e. 0, 1, 6 and 24 hours), the cutting base (bottom 2 cm) and the leaves were separately extracted (with isopropanol/methanol/acetic acid solution) and 4-CPA levels were determined by HPLC-MS/MS.
In order to evaluate the rate of conjugates hydrolysis, 4-CPA levels were monitored following treatment with Compounds 1s and 1t. Cuttings were treated with IBA alone (by submerging the cutting base), or with IBA and Compound 1s or it by submerging the cutting base and by spraying the leaves with Compound 1s or 1t. Cutting bases (bottom 2 cm) and leaves were separately extracted 6, 24 and 48 hours after treatment and hormones levels were determined by HPLC-MS/MS.

[3] = 100 μM 4-CPA applied to the cutting base

Compound | roots per cutting of green avocado branches compared with etiolated branches treated with IBA, in words [1] | rooting success rate of green avocado branches, in words ([1]; compared with IBA alone) | 4-CPA level locally (leaves) and in the cutting base ([2]; 100 μM 4-CPA applied to leaves by spraying) | 4-CPA level in leaves [2, 3] | 4-CPA level in the cutting base (local) [2, 3] | time at which 4-CPA levels peaked following application to the leaves ([2]; 100 μM 4-CPA sprayed on leaves) [h] | 4-CPA levels throughout the measurements ([2]; treatment with free 4-CPA or with conjugate)
COC(=O)[C@@H](Cc1c[nH]c2ccccc12)NC(=O)COc1ccc(Cl)cc1 [Compound 1s, 4-CPA-D-Trp] | considerably more roots per cutting | considerably enhanced the rooting success rate | – | – | – | – | –
O=C(O)COc1ccc(Cl)cc1 [Compound 4-CPA, 4-chloro-phenoxyacetic acid, reference compound] | – | – | about 150 ng/gram | less than 10 ng/gram | about 275 ng/gram | 6 | 250-300 ng/gram

— patent US20220030866A1, “CONJUGATES OF AUXIN ANALOGS” (The State of Israel, Ministry of Agriculture & Rural …, priority 2019, published 2022)
